In US20220016277A1, “MACROCYCLIC COMPLEXES OF RADIONUCLIDES AND THEIR USE IN RADIOTHERAPY OF CANCER” (Cornell University, priority 2018, published 2022):

Experiment: Organ distribution of ^225Ac complexes following intravenous injection in mice
Assay type: in vivo, C57BL/6 mice
Experimental: In Vivo Biodistribution of ^225Ac Complexes of Macropa and DOTA. All experiments were approved by the Institutional Animal Care Committee (IACC) of the University of British Columbia and were performed in accordance with the Canadian Council on Animal Care Guidelines. A total of 9 female C57BL/6 mice (6-8 weeks old, 20-25 g) were used for the biodistribution study of each radiometal complex, n=3 for each time point.
Macropa (100 μL of a 1 mg/mL solution in NH4OAc) was diluted with 387 μL of NH4OAc (1 M, pH 7), and an aliquot (203 μL) of ^225Ac(NO3)3 (˜157 kBq) was then added; the pH of this solution was adjusted to 6.5-7 by the addition of 1 M NaOH (210 μL, trace metal grade). After 5 min at ambient temperature, the reaction solution was analyzed by TLC (0.4 M pH 4 sodium citrate as the eluent), which confirmed >95% radiochemical yield. The reaction was allowed to proceed overnight, and the radiochemical yield was again confirmed to be >95% the following morning. At this time, mice were anesthetized by 2% isoflurane, and approximately 100 μL (10-15 kBq) of the [^225Ac(macropa)]^+ complex were injected into the tail vein of each mouse. After injection, mice were allowed to recover and roam freely in their cages, and were euthanized by CO2 inhalation at 15 min, 1 h, or 5 h (n=3 at each time point) post-injection. Blood was collected by cardiac puncture and placed into an appropriate test tube for scintillation counting. Tissues collected included heart, liver, kidneys, lungs, small intestine, large intestine, brain, bladder, spleen, stomach, pancreas, bone, thyroid, tail, urine, and feces. Tissues were weighed and then counted with a calibrated gamma counter (Packard, Cobra II model 5002) using three energy windows: 60-120 keV (window A), 180-260 keV (window B), and 400-480 keV (window C). Counting was performed both immediately after sacrifice and after 7 days; counts were decay corrected from the time of injection and then converted to the percentage of injected dose (% ID) per gram of tissue (% ID/g). […]
The biodistribution studies of [^225Ac(DOTA)]^− and ^225Ac(NO3)3 were carried out as described above for [^225Ac(macropa)]^+, with the following modifications. [^225Ac(DOTA)^− was prepared by adding ^225Ac(NO3)3 (338 μL, 1.1 MBq) to a solution of DOTA (100 μg, 20 mg/mL in H2O) in NH4OAc (467 μL, 0.15 M, pH 7). The pH of the solution was adjusted to 7 using NH4OAc (150 μL, 1 M, pH 7) and the solution was heated at 85° C. for 45 min. RCY >99% was confirmed by TLC as described above. [^225Ac(DOTA)]^− was diluted with saline to a final concentration of 0.05 MBq/100 μL, and 100 μL were injected into each mouse. ^225Ac(NO3)3 (˜58 μL, 0.4 MBq) was diluted and injected in the same manner as [^225Ac(DOTA)]^−. One mouse that was to be euthanized at the 5 h time point in the [^225Ac(DOTA)]^− study died shortly after injection. In the same manner, one mouse that was to be euthanized at the 1 h time point in the ^225Ac(NO3)3 study died.
The in vivo stability [^225Ac(macropa)]^+ was examined by comparing its biodistribution to those of ^225Ac(NO3)3 and [^225Ac(DOTA)]^−. C57BL/6 mice were injected via tail vein with 10-50 kBq of each radiometal complex and were sacrificed after 15 min, 1 h, or 5 h. The amount of ^225Ac retained in each organ was quantified by gamma counting and reported as the percent of injected dose per gram of tissue (% ID/g). The results of these studies are compiled in Tables 1-3. Inadequate stability of an ^225Ac complex leading to the loss of radioisotope in vivo is manifested by the accumulation of ^225Ac in the liver, spleen, and bone of mice.^[11,12,32] […] The biodistribution profile of [^225Ac(macropa)]^+ (FIG. 3B) differs markedly from that of ^225Ac(NO3)3. […] Its biodistribution profile was similar to that of [^225Ac(DOTA)]^− (FIG. 3C), which has been previously shown to retain ^225Ac^3+ in vivo.^[7]

[1] = 1 h post i.v. injection, energy window B (180-260 keV)
[2] = 1 h post i.v. injection, energy window C (400-480 keV)
[3] = 5 h post i.v. injection, energy window A (60-120 keV)
[4] = 5 h post i.v. injection, energy window B (180-260 keV)
[5] = 5 h post i.v. injection, energy window C (400-480 keV)
[6] = C57BL/6 mice, i.v., 15 min to 5 h

SMILES: O=C([O-])c1cccc(CN2CCOCCOCCN(Cc3cccc(C(=O)[O-])n3)CCOCCOCC2)n1.[225Ac+3] [[^225Ac(macropa)]^+]
- Organ distribution: lungs [1]: 0.54 % ID/g
- Organ distribution: pancreas [1]: 0.12 % ID/g
- Organ distribution: small intestines [1]: 0.94 % ID/g
- Organ distribution: spleen [1]: 0.23 % ID/g
- Organ distribution: stomach [1]: 0.33 % ID/g
- Organ distribution: tail [1]: 1.82 % ID/g
- Organ distribution: thyroids [1]: 0.10 % ID/g
- Organ distribution: urine [1]: 517.19 % ID/g
- Organ distribution: bladder [2]: 9.00 % ID/g
- Organ distribution: blood [2]: 0.54 % ID/g
- Organ distribution: bone (femur + joint) [2]: 0.70 % ID/g
- Organ distribution: brain [2]: 0.23 % ID/g
- Organ distribution: feces [2]: 0.69 % ID/g
- Organ distribution: heart [2]: 0.23 % ID/g
- Organ distribution: kidneys [2]: 17.38 % ID/g
- Organ distribution: large intestines [2]: 0.79 % ID/g
- Organ distribution: liver [2]: 1.08 % ID/g
- Organ distribution: lungs [2]: 0.84 % ID/g
- Organ distribution: pancreas [2]: 0.43 % ID/g
- Organ distribution: small intestines [2]: 1.62 % ID/g
- Organ distribution: spleen [2]: 0.48 % ID/g
- Organ distribution: stomach [2]: 0.17 % ID/g
- Organ distribution: tail [2]: 2.57 % ID/g
- Organ distribution: thyroids [2]: 8.34 % ID/g
- Organ distribution: urine [2]: 641.63 % ID/g
- Organ distribution: bladder [3]: 4.25 % ID/g
- Organ distribution: blood [3]: 0.01 % ID/g
- Organ distribution: bone (femur + joint) [3]: 0.05 % ID/g
- Organ distribution: brain [3]: 0.02 % ID/g
- Organ distribution: feces [3]: 3.46 % ID/g
- Organ distribution: heart [3]: 0.10 % ID/g
- Organ distribution: kidneys [3]: 0.74 % ID/g
- Organ distribution: large intestines [3]: 0.49 % ID/g
- Organ distribution: liver [3]: 0.39 % ID/g
- Organ distribution: lungs [3]: 0.01 % ID/g
- Organ distribution: pancreas [3]: 0.10 % ID/g
- Organ distribution: small intestines [3]: 0.29 % ID/g
- Organ distribution: spleen [3]: 0.11 % ID/g
- Organ distribution: stomach [3]: 0.01 % ID/g
- Organ distribution: tail [3]: 0.14 % ID/g
- Organ distribution: thyroids [3]: 0.10 % ID/g
- Organ distribution: urine [3]: 12.78 % ID/g
- Organ distribution: bladder [4]: 3.69 % ID/g
- Organ distribution: blood [4]: 0.00 % ID/g
- Organ distribution: bone (femur + joint) [4]: 0.02 % ID/g
- Organ distribution: brain [4]: −0.01 % ID/g
- Organ distribution: feces [4]: 3.49 % ID/g
- Organ distribution: heart [4]: −0.04 % ID/g
- Organ distribution: kidneys [4]: 0.78 % ID/g
- Organ distribution: large intestines [4]: 0.45 % ID/g
- Organ distribution: liver [4]: 0.36 % ID/g
- Organ distribution: lungs [4]: −0.05 % ID/g
- Organ distribution: pancreas [4]: −0.12 % ID/g
- Organ distribution: small intestines [4]: 0.29 % ID/g
- Organ distribution: spleen [4]: 0.09 % ID/g
- Organ distribution: stomach [4]: 0.04 % ID/g
- Organ distribution: tail [4]: 0.13 % ID/g
- Organ distribution: thyroids [4]: −6.94 % ID/g
- Organ distribution: urine [4]: 13.51 % ID/g
- Organ distribution: bladder [5]: 8.52 % ID/g
- Organ distribution: blood [5]: 0.04 % ID/g
- Organ distribution: bone (femur + joint) [5]: 0.08 % ID/g
- Organ distribution: brain [5]: −0.01 % ID/g
- Organ distribution: feces [5]: 5.27 % ID/g
- Organ distribution: heart [5]: 0.28 % ID/g
- Organ distribution: kidneys [5]: 1.07 % ID/g
- Organ distribution: large intestines [5]: 0.68 % ID/g
- Organ distribution: liver [5]: 0.55 % ID/g
- Organ distribution: lungs [5]: 0.15 % ID/g
- Organ distribution: pancreas [5]: 0.13 % ID/g
- Organ distribution: small intestines [5]: 0.42 % ID/g
- Organ distribution: spleen [5]: 0.43 % ID/g
- Organ distribution: stomach [5]: 0.13 % ID/g
- Organ distribution: tail [5]: 0.28 % ID/g
- Organ distribution: thyroids [5]: 19.89 % ID/g
- Organ distribution: urine [5]: 22.27 % ID/g
- blood clearance and excretion (in words) [6]: rapidly cleared from mice
- organ accumulation (in words) [6]: did not accumulate in any organ
